Experiments:
[1] = system: androgen receptor; conditions: prostate cancer cells; cited from earlier work
[2] = system: apo D; conditions: cited from earlier work
[3] = system: underarm odor, axillae skin of a panel of human subjects; test: Deodorant value test (modified): underarm odor scored 0-5 by three assessors every 24 h; assay type: in vivo; conditions: Example 2; single solution on one axilla versus vehicle on the other; compared with 8.2% aluminum chlorohydrate and 0.4% chlorhexidine digluconate
From the text: A test for the deodorant effects of monensin or resveratrol alone was first carried out. The positive controls were 8.2% aluminum chlorohydrate, a level that is used in most deodorant or antiperspirant products on the market and 0.4% chlorhexidine digluconate, a level that is usually used for bacterial killing. The negative control was a vehicle consisting of 60% ethanol and 40% water. Three experienced underarm odor assessors who are able to correctly rank the odor intensities based on the deodorant value test system U.S. Pat. No. 4,278,658) performed odor assessments. I)odorant assessment scores were recorded according to the inalodor category scale, when applied directly to the axillae skin of a panel of human subjects.
The test described in deodorant value test system has been modified by measuring odor intensity every 24 hours after treatment until odor intensity is detectable (score 1 or up) on a 0-5 score instead of just 24 hours after treatment.
In this test, twenty subjects selected by experienced odor assessors have an average odor score of 3.5 (range from score 3-5). To prevent any any-over effects from occurring, all of subjects have not used any underarm products before test for at least 10 days. […] At 24 hour intervals, each subject was evaluated for underarm odor by averaging the score of the three assessors until odor in test groups was detectable (score 1 or up). […]

Row | SMILES | effect on expression and function of the androgen receptor [1] | effect on secretion of apo D from cells [2] | effectiveness in preventing underarm odor (deodorant effect, FIG. 1) [3]
1 | Oc1ccc(C=Cc2cc(O)cc(O)c2)cc1 [Resveratrol, resveratrol] | inhibit the expression and function of the androgen receptor |  | 
2 | CC[C@@]1([C@@H]2O[C@@H]([C@H]3O[C@@](O)(CO)[C@H](C)C[C@@H]3C)C[C@@H]2C)CC[C@H]([C@]2(C)CC[C@]3(C[C@H](O)[C@@H](C)[C@@H]([C@@H](C)[C@@H](OC)[C@H](C)C(=O)O)O3)O2)O1 [monensin] |  | decreases secretion of apo D from cells | more effective in preventing underarm odor than the positive control products

Reference: patent US6426061B1, “Method and composition for preventing sweat-related odor” (priority 2001, dated 2002)
